Test results published in ChEMBL document CHEMBL1201862, “PubChem BioAssay data set” (2004).
Calls of active or inactive are those of the source.

Legend:
Assay type in all cases: functional
[1] = target: Calcium/calmodulin-dependent protein kinase type 1 (Homo sapiens, UniProt Q14012)
[2] = target: Aurora kinase B (Homo sapiens, UniProt Q96GD4)
[3] = target: RAC-gamma serine/threonine-protein kinase (Homo sapiens, UniProt Q9Y243)
[4] = target: BDNF/NT-3 growth factors receptor (Homo sapiens, UniProt Q16620);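 note: NTRK2 measured as one member of a broad kinome-wide kinase profiling panel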
BDNF/NT-3 growth factors receptor, sequence (Q16620 whole entry): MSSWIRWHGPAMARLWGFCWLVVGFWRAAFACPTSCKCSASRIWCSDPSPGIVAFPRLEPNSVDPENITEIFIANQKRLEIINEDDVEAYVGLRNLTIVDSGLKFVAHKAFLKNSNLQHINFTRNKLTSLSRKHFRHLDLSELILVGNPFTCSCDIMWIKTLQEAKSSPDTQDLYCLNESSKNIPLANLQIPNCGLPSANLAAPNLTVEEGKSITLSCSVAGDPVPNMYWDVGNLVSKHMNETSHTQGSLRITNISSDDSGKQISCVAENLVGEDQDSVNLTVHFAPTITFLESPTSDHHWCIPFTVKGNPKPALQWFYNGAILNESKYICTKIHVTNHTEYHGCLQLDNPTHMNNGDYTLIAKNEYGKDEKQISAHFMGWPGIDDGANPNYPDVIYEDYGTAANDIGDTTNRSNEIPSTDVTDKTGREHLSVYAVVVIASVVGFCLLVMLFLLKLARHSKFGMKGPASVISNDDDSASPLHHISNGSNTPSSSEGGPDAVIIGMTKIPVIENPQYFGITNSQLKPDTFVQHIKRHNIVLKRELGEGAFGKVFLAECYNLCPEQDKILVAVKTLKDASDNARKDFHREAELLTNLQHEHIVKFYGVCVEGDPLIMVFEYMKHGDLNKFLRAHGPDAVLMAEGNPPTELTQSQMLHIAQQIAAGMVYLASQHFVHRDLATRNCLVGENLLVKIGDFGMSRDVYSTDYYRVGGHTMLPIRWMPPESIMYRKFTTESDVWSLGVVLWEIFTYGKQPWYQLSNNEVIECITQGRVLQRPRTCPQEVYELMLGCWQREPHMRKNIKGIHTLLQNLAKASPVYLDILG

[5] = target: Casein kinase II subunit alpha (Homo sapiens, UniProt P68400)
[6] = target: Calcium/calmodulin-dependent protein kinase type II subunit gamma (Homo sapiens, UniProt Q13555)
[7] = target: MAP kinase-activated protein kinase 2 (Homo sapiens, UniProt P49137);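 note: measured as one member of a kinome-wide kinase panel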
[8] = target: Mitogen-activated protein kinase 1 (Homo sapiens, UniProt P28482)
[9] = target: Interleukin-1 receptor-associated kinase 4 (Homo sapiens, UniProt Q9NWZ3)
[10] = target: Glycogen synthase kinase-3 beta (Homo sapiens, UniProt P49841);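 note: value comes from a broad kinome profiling panel, with GSK3B as the panel member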
[11] = target: Death-associated protein kinase 3 (Homo sapiens, UniProt O43293);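 note: measured as one member of a kinome-wide profiling panel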
[12] = target: Hepatocyte growth factor receptor (Homo sapiens, UniProt P08581);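 note: kinase panel profiling across the kinome, with MET as the panel member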
Hepatocyte growth factor receptor, sequence (P08581 whole entry): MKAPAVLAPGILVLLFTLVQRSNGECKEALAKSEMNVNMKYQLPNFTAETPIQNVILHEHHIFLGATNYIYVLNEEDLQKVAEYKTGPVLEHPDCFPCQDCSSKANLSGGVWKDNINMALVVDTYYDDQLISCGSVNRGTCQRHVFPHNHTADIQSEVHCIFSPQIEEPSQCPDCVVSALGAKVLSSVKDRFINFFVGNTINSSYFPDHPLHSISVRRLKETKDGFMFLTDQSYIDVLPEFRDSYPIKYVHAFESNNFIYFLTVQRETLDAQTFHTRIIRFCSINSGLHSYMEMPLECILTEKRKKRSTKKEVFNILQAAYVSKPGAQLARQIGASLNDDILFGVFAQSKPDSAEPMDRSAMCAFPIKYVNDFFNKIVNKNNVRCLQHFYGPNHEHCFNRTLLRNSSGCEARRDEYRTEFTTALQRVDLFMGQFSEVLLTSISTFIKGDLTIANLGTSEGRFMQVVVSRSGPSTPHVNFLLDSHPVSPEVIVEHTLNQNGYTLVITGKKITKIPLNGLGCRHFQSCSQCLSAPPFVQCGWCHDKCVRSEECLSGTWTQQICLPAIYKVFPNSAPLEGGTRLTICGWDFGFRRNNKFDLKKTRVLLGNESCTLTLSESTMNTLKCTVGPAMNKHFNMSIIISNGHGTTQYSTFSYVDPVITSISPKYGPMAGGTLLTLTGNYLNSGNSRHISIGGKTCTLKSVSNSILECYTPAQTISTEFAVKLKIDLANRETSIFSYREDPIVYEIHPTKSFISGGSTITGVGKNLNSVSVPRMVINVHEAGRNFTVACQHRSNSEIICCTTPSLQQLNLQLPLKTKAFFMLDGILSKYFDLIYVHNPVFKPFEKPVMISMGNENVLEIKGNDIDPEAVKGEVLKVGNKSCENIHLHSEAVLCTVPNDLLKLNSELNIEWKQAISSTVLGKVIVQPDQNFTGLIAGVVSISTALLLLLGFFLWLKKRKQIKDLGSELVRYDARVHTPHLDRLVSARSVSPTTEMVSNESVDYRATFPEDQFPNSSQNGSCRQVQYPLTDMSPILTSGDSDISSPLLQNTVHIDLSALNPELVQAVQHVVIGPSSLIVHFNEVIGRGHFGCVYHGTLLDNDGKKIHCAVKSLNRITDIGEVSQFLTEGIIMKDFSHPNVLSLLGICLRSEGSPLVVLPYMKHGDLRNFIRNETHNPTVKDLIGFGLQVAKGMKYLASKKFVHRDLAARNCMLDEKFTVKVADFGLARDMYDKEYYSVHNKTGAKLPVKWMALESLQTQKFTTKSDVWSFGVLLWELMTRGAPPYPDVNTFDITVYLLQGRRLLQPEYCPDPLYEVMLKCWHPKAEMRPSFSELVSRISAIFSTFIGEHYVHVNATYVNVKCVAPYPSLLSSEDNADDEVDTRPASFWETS

[13] = target: Tyrosine-protein kinase Fyn (Homo sapiens, UniProt P06241)
[14] = target: Tyrosine-protein kinase Lck (Homo sapiens, UniProt P06239);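 note: lck was assayed as one member of a kinase panel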
[15] = target: Tyrosine-protein kinase receptor TYRO3 (Homo sapiens, UniProt Q06418);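 note: TYRO3 value obtained as one member of a kinome-wide profiling panel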
[16] = target: Rho-associated protein kinase 1 (Homo sapiens, UniProt Q13464);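 note: measured within a broad kinome-wide panel profiling many kinases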
[17] = target: Mast/stem cell growth factor receptor Kit (Homo sapiens, UniProt P10721);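 note: KIT entry within a kinase panel assay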
[18] = target: Dual specificity protein kinase CLK4 (Homo sapiens, UniProt Q9HAZ1)
[19] = target: Protein kinase C iota type (Homo sapiens, UniProt P41743);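 note: measured within a kinome-wide kinase panel, PRKCI as panel member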
[20] = target: Tyrosine-protein kinase ABL1 (Homo sapiens, UniProt P00519)
[21] = target: Insulin receptor (Homo sapiens, UniProt P06213);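 note: insulin receptor kinase tested as one member of a kinome-wide kinase panel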
[22] = target: 3-phosphoinositide-dependent protein kinase 1 (Homo sapiens, UniProt O15530);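 note: value comes from the Navigating the Kinome panel, PDPK1 member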
[23] = target: cAMP-dependent protein kinase catalytic subunit alpha (Homo sapiens, UniProt P17612)
[24] = target: Serine/threonine-protein kinase 17A (Homo sapiens, UniProt Q9UEE5)
[25] = target: Cyclin-dependent kinase 5 (Homo sapiens, UniProt Q00535);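 note: CDK5 measured as one member of a kinase profiling panel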
[26] = target: Mitogen-activated protein kinase kinase kinase kinase 5 (Homo sapiens, UniProt Q9Y4K4);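 note: measured as one member of a kinome-spanning kinase panel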
[27] = target: Testis-specific serine/threonine-protein kinase 2 (Homo sapiens, UniProt Q96PF2);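 note: part of the Navigating the Kinome panel, target entry STK22B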
[28] = target: Serine/threonine-protein kinase pim-1 (Homo sapiens, UniProt P11309)
Serine/threonine-protein kinase pim-1, sequence (P11309 whole entry): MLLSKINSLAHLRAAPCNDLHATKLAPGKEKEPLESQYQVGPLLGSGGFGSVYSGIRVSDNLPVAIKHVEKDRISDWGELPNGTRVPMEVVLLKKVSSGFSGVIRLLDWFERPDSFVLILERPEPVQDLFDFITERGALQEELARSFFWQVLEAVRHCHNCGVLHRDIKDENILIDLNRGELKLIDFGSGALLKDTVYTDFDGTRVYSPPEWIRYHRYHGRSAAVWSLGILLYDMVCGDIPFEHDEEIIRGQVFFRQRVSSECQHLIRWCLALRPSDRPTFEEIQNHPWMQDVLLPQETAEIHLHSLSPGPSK

[29] = target: Serine/threonine-protein kinase D2 (Homo sapiens, UniProt Q9BZL6);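 note: measured against PRKD2 as one member of a kinome-wide kinase profiling panel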
[30] = target: Fibroblast growth factor receptor 1 (Homo sapiens, UniProt P11362)
Fibroblast growth factor receptor 1, sequence (P11362 whole entry): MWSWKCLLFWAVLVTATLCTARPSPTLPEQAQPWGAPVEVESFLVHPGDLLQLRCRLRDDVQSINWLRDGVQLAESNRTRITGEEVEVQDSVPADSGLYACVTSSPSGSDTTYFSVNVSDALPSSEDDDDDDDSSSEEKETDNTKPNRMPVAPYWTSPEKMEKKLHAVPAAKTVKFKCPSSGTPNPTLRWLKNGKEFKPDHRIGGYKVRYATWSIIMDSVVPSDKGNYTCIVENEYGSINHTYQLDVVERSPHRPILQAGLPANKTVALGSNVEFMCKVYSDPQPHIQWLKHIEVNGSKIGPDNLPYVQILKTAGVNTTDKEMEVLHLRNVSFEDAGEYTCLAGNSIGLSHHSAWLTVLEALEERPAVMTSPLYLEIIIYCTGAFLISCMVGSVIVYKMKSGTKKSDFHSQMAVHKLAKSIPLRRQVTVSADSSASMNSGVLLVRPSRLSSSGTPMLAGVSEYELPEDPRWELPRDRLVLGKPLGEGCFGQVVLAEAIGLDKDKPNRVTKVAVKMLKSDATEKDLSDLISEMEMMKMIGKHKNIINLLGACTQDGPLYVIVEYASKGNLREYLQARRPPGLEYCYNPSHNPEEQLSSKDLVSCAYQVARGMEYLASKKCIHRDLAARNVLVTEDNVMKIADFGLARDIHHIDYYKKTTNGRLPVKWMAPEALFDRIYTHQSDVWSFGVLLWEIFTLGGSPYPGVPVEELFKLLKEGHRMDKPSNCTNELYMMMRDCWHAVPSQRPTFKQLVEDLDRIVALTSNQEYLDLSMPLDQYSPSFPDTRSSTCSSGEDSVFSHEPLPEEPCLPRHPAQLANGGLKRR

[31] = target: Mitogen-activated protein kinase kinase kinase kinase 4 (Homo sapiens, UniProt O95819)
[32] = target: Proto-oncogene tyrosine-protein kinase Src (Homo sapiens, UniProt P12931);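 note: SRC entry within a kinome-wide kinase profiling panel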
[33] = target: Dual specificity protein kinase CLK2 (Homo sapiens, UniProt P49760)
[34] = target: Serine/threonine-protein kinase PLK3 (Homo sapiens, UniProt Q9H4B4)
[35] = target: STE20-like serine/threonine-protein kinase (Homo sapiens, UniProt Q9H2G2)
[36] = target: Protein-tyrosine kinase 6 (Homo sapiens, UniProt Q13882)
[37] = target: Tyrosine-protein kinase FRK (Homo sapiens, UniProt P42685);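 note: FRK tested as one member of a kinome panel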
[38] = target: Serine/threonine-protein kinase Chk2 (Homo sapiens, UniProt O96017);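 note: CHEK2 entry within a kinome-wide screening panel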
Serine/threonine-protein kinase Chk2, sequence (O96017 whole entry): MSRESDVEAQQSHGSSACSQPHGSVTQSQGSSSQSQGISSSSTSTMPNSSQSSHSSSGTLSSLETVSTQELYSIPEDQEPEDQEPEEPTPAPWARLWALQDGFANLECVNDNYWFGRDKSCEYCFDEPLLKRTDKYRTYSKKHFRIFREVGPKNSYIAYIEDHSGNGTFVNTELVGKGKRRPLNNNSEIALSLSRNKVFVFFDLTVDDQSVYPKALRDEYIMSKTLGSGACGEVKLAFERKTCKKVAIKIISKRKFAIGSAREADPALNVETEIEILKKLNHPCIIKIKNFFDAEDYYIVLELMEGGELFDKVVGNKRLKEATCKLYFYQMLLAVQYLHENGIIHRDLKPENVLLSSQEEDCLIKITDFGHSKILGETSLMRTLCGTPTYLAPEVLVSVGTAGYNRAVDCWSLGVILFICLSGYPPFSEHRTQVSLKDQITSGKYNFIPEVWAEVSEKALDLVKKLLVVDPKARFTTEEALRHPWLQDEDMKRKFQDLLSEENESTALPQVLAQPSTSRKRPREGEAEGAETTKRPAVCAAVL

[39] = target: Calcium/calmodulin-dependent protein kinase type II subunit beta (Homo sapiens, UniProt Q13554)
[40] = target: Serine/threonine-protein kinase N2 (Homo sapiens, UniProt Q16513)
[41] = target: Cyclin-dependent kinase 9 (Homo sapiens, UniProt P50750);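 note: value from the CDK9 entry of a kinome-spanning kinase panel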
[42] = target: Mitogen-activated protein kinase kinase kinase kinase 2 (Homo sapiens, UniProt Q12851);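 note: measured as one member of a kinome-wide kinase panel, with MAP4K2 as the panel entry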
Mitogen-activated protein kinase kinase kinase kinase 2, sequence (Q12851 whole entry): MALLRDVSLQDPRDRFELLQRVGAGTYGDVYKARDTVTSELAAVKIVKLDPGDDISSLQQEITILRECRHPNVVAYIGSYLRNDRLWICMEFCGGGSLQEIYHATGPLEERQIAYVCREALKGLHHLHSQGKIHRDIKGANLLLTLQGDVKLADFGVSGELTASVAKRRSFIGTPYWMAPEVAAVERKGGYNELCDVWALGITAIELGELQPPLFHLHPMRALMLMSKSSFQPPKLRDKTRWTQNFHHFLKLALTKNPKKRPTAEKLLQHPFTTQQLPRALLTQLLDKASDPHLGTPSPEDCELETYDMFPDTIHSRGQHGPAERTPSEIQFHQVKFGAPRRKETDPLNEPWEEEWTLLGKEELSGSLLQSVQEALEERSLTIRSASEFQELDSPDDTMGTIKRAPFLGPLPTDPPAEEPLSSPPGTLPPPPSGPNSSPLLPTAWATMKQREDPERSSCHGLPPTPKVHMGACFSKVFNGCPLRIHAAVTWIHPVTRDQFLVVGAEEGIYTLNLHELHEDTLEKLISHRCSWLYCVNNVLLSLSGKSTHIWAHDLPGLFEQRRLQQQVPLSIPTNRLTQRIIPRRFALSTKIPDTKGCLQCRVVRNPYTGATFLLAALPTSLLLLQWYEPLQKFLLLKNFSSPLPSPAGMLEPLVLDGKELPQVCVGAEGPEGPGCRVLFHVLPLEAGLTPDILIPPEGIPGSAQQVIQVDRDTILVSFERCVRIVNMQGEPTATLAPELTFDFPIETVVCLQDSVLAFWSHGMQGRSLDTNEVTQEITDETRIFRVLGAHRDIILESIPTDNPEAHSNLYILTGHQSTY

[43] = target: Serine/threonine-protein kinase PLK1 (Homo sapiens, UniProt P53350);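 note: PLK1 measured as one member of a kinome-wide profiling panel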
[44] = target: Mitogen-activated protein kinase 9 (Homo sapiens, UniProt P45984);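 note: value from a kinome panel profiling assay, MAPK9 panel entry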
[45] = target: Tyrosine-protein kinase BTK (Homo sapiens, UniProt Q06187)
[46] = target: Megakaryocyte-associated tyrosine-protein kinase (Homo sapiens, UniProt P42679);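 note: affinity measured as one member of a kinase panel (Navigating the Kinome) against MATK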
[47] = target: Mitogen-activated protein kinase 13 (Homo sapiens, UniProt O15264)
Mitogen-activated protein kinase 13, sequence (O15264 whole entry): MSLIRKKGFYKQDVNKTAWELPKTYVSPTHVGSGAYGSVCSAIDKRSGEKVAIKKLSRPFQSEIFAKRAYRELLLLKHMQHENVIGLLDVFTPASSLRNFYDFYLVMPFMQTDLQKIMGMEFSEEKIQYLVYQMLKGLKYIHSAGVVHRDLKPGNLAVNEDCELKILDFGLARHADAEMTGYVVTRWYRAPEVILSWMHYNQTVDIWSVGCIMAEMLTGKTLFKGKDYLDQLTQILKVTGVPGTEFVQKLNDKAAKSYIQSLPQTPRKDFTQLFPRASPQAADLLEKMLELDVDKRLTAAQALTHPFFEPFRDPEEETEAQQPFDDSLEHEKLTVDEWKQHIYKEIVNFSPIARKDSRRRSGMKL

- Ki [1]: > 2000 nM (inactive)
- Ki [2]: 1260 nM (active)
- Ki [3]: 501 nM (active)
- Ki [4]: > 5010 nM (inactive)
- Ki [5]: > 6310 nM (inactive)
- Ki [6]: 79.4 nM (active)
- Ki [7]: > 7940 nM (inactive)
- Ki [8]: 501 nM (active)
- Ki [9]: 5.01 nM (active)
- Ki [10]: 200 nM (active)
- Ki [12]: > 3160 nM (inactive)
- Ki [13]: > 794 nM (inactive)
- Ki [14]: > 2510 nM (inactive)
- Ki [15]: > 2000 nM (inactive)
- Ki [16]: 5.01 nM (active)
- Ki [17]: > 1260 nM (inactive)
- Ki [18]: 6.31 nM (active)
- Ki [19]: 200 nM (active)
- Ki [20]: > 631 nM (inactive)
- Ki [21]: > 5010 nM (inactive)
- Ki [22]: 316 nM (active)
- Ki [23]: 25.1 nM (active)
- Ki [24]: 794 nM (active)
- Ki [25]: 50.1 nM (active)
- Ki [26]: 251 nM (active)
- Ki [27]: 100 nM (active)
- Ki [28]: 501 nM (active)
- Ki [29]: 501 nM (active)
- Ki [30]: > 5010 nM (inactive)
- Ki [31]: 31.6 nM (active)
- Ki [32]: > 2000 nM (inactive)
- Ki [33]: 39.8 nM (active)
- Ki [34]: > 7940 nM (inactive)
- Ki [35]: 316 nM (active)
- Ki [36]: > 2510 nM (inactive)
- Ki [37]: 1580 nM (active)
- Ki [38]: > 1580 nM (inactive)
- Ki [39]: 316 nM (active)
- Ki [40]: 251 nM (active)
- Ki [41]: 31.6 nM (active)
- Ki [42]: 79.4 nM (active)
- Ki [43]: > 7940 nM (inactive)
- Ki [44]: > 3980 nM (inactive)
- Ki [45]: > 1260 nM (inactive)
- Ki [46]: > 2000 nM (inactive)
- Ki [47]: 398 nM (active)
Compound: NC1CCCCC1Nc1nccc(-c2c[nH]c3ncccc23)n1 (configuration not stated)
- Ki [11]: 39.8 nM (active)
